# Test results as given in patent US20070128217A1 (priority 2003, published 2007).
# Columns and labels:
# [1] = system: antibodies in sera from SARS patients (sera 1a, 1b, 2, 6, 37, 62, London, SARS-yellow, SARS-green); assay type: binding, human; design: Binding of serum 6 to linear peptides of protein X1 of SARS-CoV Urbani / Binding of serum 37 to linear peptides of protein X1 of SARS-CoV Urbani / Binding of serum 6 to looped/cyclic peptide (PEPSCAN-ELISA) / Binding of serum 37 to looped/cyclic peptide (PEPSCAN-ELISA) / Binding of serum 37 to looped/cyclic peptides of protein X1 of SARS-CoV Urbani / Binding of serum 6 to linear peptides of protein X2 / Binding of serum 37 to linear peptides of protein X2 / Binding of serum 37 to looped/cyclic peptides of protein X2 of SARS-CoV Urbani / Binding of serum 6 to linear peptides of protein M of SARS-CoV Urbani / Binding of serum 37 to linear peptides of protein M of SARS-CoV Urbani / Binding of serum 6 to looped/cyclic peptides of protein M of SARS-CoV Urbani / Binding of serum 37 to looped/cyclic peptides of protein M of SARS-CoV Urbani / Binding of serum 6 to linear peptides of protein X3 of SARS-CoV Urbani / Binding of serum 37 to linear peptides of protein X3 of SARS-CoV Urbani / Binding of serum 37 to looped/cyclic peptides of protein X3 of SARS-CoV Urbani / Binding of serum 6 to linear peptides of protein X4 of SARS-CoV Urbani / Binding of serum 37 to linear peptides of protein X4 of SARS-CoV Urbani / Binding of serum 37 to looped/cyclic peptides of protein X4 of SARS-CoV Urbani / Binding of serum 6 to linear peptides of protein X5 of SARS-CoV Urbani / Binding of serum 37 to linear peptides of protein X5 of SARS-CoV Urbani / Binding of serum 37 to looped/cyclic peptides of protein X5 of SARS-CoV Urbani / Binding of serum 6 to linear peptides of protein N of SARS-CoV Urbani / Binding of serum 37 to linear peptides of protein N of SARS-CoV Urbani / Binding of serum 6 to linear peptide (PEPSCAN-ELISA) / Binding of serum 1a to looped/cyclic peptides of protein N of SARS-CoV Urbani / Binding of serum 1b to looped/cyclic peptides of protein N of SARS-CoV Urbani / Binding of serum 2 to looped/cyclic peptides of protein N of SARS-CoV Urbani / Binding of serum 6 to looped/cyclic peptides of protein N of SARS-CoV Urbani / Binding of serum 37 to looped/cyclic peptides of protein N of SARS-CoV Urbani / Binding of serum 62 to looped/cyclic peptides of protein N of SARS-CoV Urbani / Binding of serum London to looped/cyclic peptides of protein N of SARS-CoV Urbani / Binding of serum SARS-green to looped/cyclic peptides of protein N of SARS-CoV Urbani: unit not given here
# [2] = system: control sera (pooled serum of ten healthy LUMC hospital workers; commercial negative donor pooled serum from the Dutch bloodbank); assay type: binding, human; design: Binding of Control serum LUMC to linear peptides / Binding of Control serum Blood-bank to linear peptides / Binding of Control serum LUMC to looped peptides / Binding of Control Serum Blood-Bank to Looped peptides / Binding of Control serum LUMC to linear peptides of the protein M of SARS-CoV Urbani / Binding of Control serum Blood-bank to linear peptides of the protein M of SARS-CoV Urbani / Binding of Control serum LUMC to looped peptides of the protein M of SARS-CoV Urbani / Binding of Control Serum Blood-Bank to Looped peptides of the protein M of SARS-CoV Urbani: unit not given here
# [3] = system: rabbit serum obtained by immunizing a rabbit with the SARS-CoV strain Frankfurt 1; assay type: binding; design: Binding of a rabbit serum to linear peptides / Binding of a rabbit serum to looped peptides / Rabbit serum linear peptides / Rabbit serum looped peptides / Binding of a rabbit serum to linear peptides of protein N of SARS-CoV Urbani (Rabbit serum linear peptides) / Binding of a rabbit serum to looped/cyclic peptides of protein N of SARS-CoV Urbani (Rabbit serum looped peptides): unit not given here
sequence,measurement,setting,value
DTGIENATFFIFNKL,Binding of serum 1a to linear peptides of protein X1 of SARS-CoV Urbani,[1],0.7
same,Binding of serum 1a to looped/cyclic peptides of protein X1 of SARS-CoV Urbani,[1],0.6
same,Binding of serum 1b to linear peptides of protein X1 of SARS-CoV Urbani,[1],0.5
same,Binding of serum 1b to looped/cyclic peptides of protein X1 of SARS-CoV Urbani,[1],0.5
same,Binding of serum 2 to linear peptides of protein X1 of SARS-CoV Urbani,[1],0.5
same,Binding of serum 2 to looped/cyclic peptides of protein X1 of SARS-CoV Urbani,[1],0.6
same,Binding of serum 6 to linear peptides of protein X1 of SARS-CoV Urbani,[1],0.4
same,Binding of serum 6 to looped/cyclic peptides of protein X1 of SARS-CoV Urbani,[1],0.2
same,Binding of serum 37 to linear peptides of protein X1 of SARS-CoV Urbani,[1],0.7
same,Binding of serum 37 to looped/cyclic peptides of protein X1 of SARS-CoV Urbani,[1],0.7
same,Binding of serum 62 to linear peptides of protein X1 of SARS-CoV Urbani,[1],0.6
same,Binding of serum 62 to looped/cyclic peptides of protein X1 of SARS-CoV Urbani,[1],0.6
same,Binding of serum London to linear peptides of protein X1 of SARS-CoV Urbani,[1],0.4
same,Binding of serum London to looped/cyclic peptides of protein X1 of SARS-CoV Urbani,[1],0.2
same,Binding of serum SARS-green to linear peptides of protein X1 of SARS-CoV Urbani,[1],0.3
same,Binding of serum SARS-green to looped/cyclic peptides of protein X1 of SARS-CoV Urbani,[1],0.4
same,Binding of serum SARS-yellow to linear peptides of protein X1 of SARS-CoV Urbani,[1],0.4
same,Binding of serum SARS-yellow to looped/cyclic peptides of protein X1 of SARS-CoV Urbani,[1],0.6
same,Binding of Control Serum Blood-Bank to Looped peptides,[2],0.7
same,Binding of Control serum Blood-bank to linear peptides,[2],0.6
same,Binding of Control serum LUMC to linear peptides,[2],0.5
same,Binding of Control serum LUMC to looped peptides,[2],0.9
same,Binding of a rabbit serum to linear peptides,[3],0.1
same,Binding of a rabbit serum to looped peptides,[3],0.6
DVIISSIVRQLFKPL,Binding of serum 1a to linear peptides of protein X3 of SARS-CoV Urbani,[1],0.7
same,Binding of serum 1a to looped/cyclic peptides of protein X3 of SARS-CoV Urbani,[1],0.6
same,Binding of serum 1b to linear peptides of protein X3 of SARS-CoV Urbani,[1],0.4
same,Binding of serum 1b to looped/cyclic peptides of protein X3 of SARS-CoV Urbani,[1],0.2
same,Binding of serum 2 to linear peptides of protein X3 of SARS-CoV Urbani,[1],0.5
same,Binding of serum 2 to looped/cyclic peptides of protein X3 of SARS-CoV Urbani,[1],0.5
same,Binding of serum 6 to linear peptides of protein X3 of SARS-CoV Urbani,[1],0.3
same,Binding of serum 6 to looped/cyclic peptides of protein X3 of SARS-CoV Urbani,[1],0.6
same,Binding of serum 37 to linear peptides of protein X3 of SARS-CoV Urbani,[1],0.6
same,Binding of serum 37 to looped/cyclic peptides of protein X3 of SARS-CoV Urbani,[1],0.5
same,Binding of serum 62 to linear peptides of protein X3 of SARS-CoV Urbani,[1],0.6
same,Binding of serum 62 to looped/cyclic peptides of protein X3 of SARS-CoV Urbani,[1],0.4
same,Binding of serum London to linear peptides of protein X3 of SARS-CoV Urbani,[1],0.6
same,Binding of serum London to looped/cyclic peptides of protein X3 of SARS-CoV Urbani,[1],0.6
same,Binding of serum SARS-green to linear peptides of protein X3 of SARS-CoV Urbani,[1],0.3
same,Binding of serum SARS-green to looped/cyclic peptides of protein X3 of SARS-CoV Urbani,[1],0.4
same,Binding of serum SARS-yellow to linear peptides of protein X3 of SARS-CoV Urbani,[1],0.2
same,Binding of serum SARS-yellow to looped/cyclic peptides of protein X3 of SARS-CoV Urbani,[1],0.5
same,Binding of Control Serum Blood-Bank to Looped peptides of the protein X3 of SARS-CoV Urbani,[2],0.5
same,Binding of Control serum Blood-bank to linear peptides of the protein X3 of SARS-CoV Urbani,[2],0.6
same,Binding of Control serum LUMC to linear peptides of the protein X3 of SARS-CoV Urbani,[2],0.4
same,Binding of Control serum LUMC to looped peptides of the protein X3 of SARS-CoV Urbani,[2],0.5
same,Rabbit serum linear peptides,[3],0.5
same,Rabbit serum looped peptides,[3],0.2
